Source: ChEMBL document CHEMBL1201862, “PubChem BioAssay data set” (2004)
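Interpolation was linear, between the two tested concentrations surrounding the appropriate level; five concentrations were tested over 48 hours in 96-well plates. Abbreviation: GI50, concentration required for 50% inhibition of growth.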 Active and inactive are the calls of the source. Rule as the data show it: active = GI50 up to about 1.1 µM and inactive = higher.

What was measured:
Test in all cases: DTP human tumour cell line panel, 48 h
M14 = tested on: M14
SK-MEL-28 = tested on: SK-MEL-28
TK-10 = tested on: TK-10
MDA-MB-435 = tested on: MDA-MB-435
786-0 = tested on: 786-0
A549 = tested on: A549
UACC-62 = tested on: UACC-62
NCI-H226 = tested on: NCI-H226
MOLT-4 = tested on: MOLT-4
DU-145 = tested on: DU-145
A498 = tested on: A498
SF-295 = tested on: SF-295
HOP-92 = tested on: HOP-92
HL-60 = tested on: HL-60
OVCAR-4 = tested on: OVCAR-4
OVCAR-5 = tested on: OVCAR-5
OVCAR-8 = tested on: OVCAR-8
U-251 = tested on: U-251
NCI-H522 = tested on: NCI-H522
CCRF-CEM = tested on: CCRF-CEM

Measured: GI50

[O-][n+]1c(CN2CCCCC2)nc2cccc3c2c1-c1ccccc1-3
inactive: M14 15.9 µM | SK-MEL-28 68.5 µM | TK-10 27.2 µM | MDA-MB-435 32.1 µM | 786-0 16.7 µM | A549 15.7 µM | UACC-62 16.4 µM | NCI-H226 16.9 µM | MOLT-4 > 100 µM | DU-145 17.9 µM | A498 18.2 µM | SF-295 28.7 µM | HOP-92 25.1 µM | HL-60 > 100 µM | OVCAR-4 31.3 µM | OVCAR-5 21.3 µM | OVCAR-8 22.8 µM | U-251 29.4 µM

COc1ccc2c(C)cc(C)nc2n1
inactive: M14 > 100 µM | SK-MEL-28 > 100 µM | TK-10 > 100 µM | MDA-MB-435 > 100 µM | 786-0 > 100 µM | A549 > 100 µM | UACC-62 > 100 µM | NCI-H522 > 100 µM | MOLT-4 > 100 µM | CCRF-CEM > 100 µM | DU-145 > 100 µM | A498 > 100 µM | SF-295 > 100 µM | HOP-92 > 100 µM | HL-60 > 100 µM | OVCAR-4 > 100 µM | OVCAR-5 > 100 µM | OVCAR-8 > 100 µM | U-251 > 100 µM

Nc1nc(O)c2c(n1)NCN(c1ccc(S(N)(=O)=O)cc1)C2
inactive: M14 > 100 µM | SK-MEL-28 > 100 µM | TK-10 > 100 µM | MDA-MB-435 > 100 µM | 786-0 > 100 µM | A549 > 100 µM | UACC-62 > 100 µM | NCI-H226 > 100 µM | NCI-H522 > 100 µM | MOLT-4 > 100 µM | DU-145 > 100 µM | A498 > 100 µM | SF-295 85.9 µM | HOP-92 > 100 µM | OVCAR-4 > 100 µM | OVCAR-5 > 100 µM | OVCAR-8 > 100 µM | U-251 > 100 µM

CNC(=O)Oc1ccc(-c2cn3cc(OC(=O)NC)ccc3n2)cc1
inactive: M14 41.7 µM | SK-MEL-28 92.7 µM | TK-10 91.6 µM | MDA-MB-435 31.7 µM | 786-0 26.7 µM | A549 44.1 µM | UACC-62 28.4 µM | NCI-H226 > 100 µM | MOLT-4 20.5 µM | CCRF-CEM 17.9 µM | DU-145 68.9 µM | A498 66.4 µM | SF-295 64.6 µM | HOP-92 > 100 µM | OVCAR-4 51.1 µM | OVCAR-5 > 100 µM | OVCAR-8 49.9 µM | U-251 36.9 µM

Cn1c(-c2ccccc2)cc(-c2cccs2)c1-c1ccsc1
inactive: M14 > 100 µM | TK-10 > 100 µM | MDA-MB-435 > 100 µM | 786-0 > 100 µM | A549 > 100 µM | UACC-62 > 100 µM | NCI-H226 > 100 µM | MOLT-4 > 100 µM | CCRF-CEM > 100 µM | DU-145 > 100 µM | A498 > 100 µM | SF-295 > 100 µM | HOP-92 > 100 µM | HL-60 > 100 µM | OVCAR-4 > 100 µM | OVCAR-5 > 100 µM | OVCAR-8 > 100 µM | U-251 > 100 µM

O=C1/C(=C/c2ccc(Cl)cc2)CCC/C1=C\c1ccc(O)c(CN2CCCCC2)c1
inactive: M14 20.8 µM | SK-MEL-28 21 µM | TK-10 29.2 µM | MDA-MB-435 17 µM | 786-0 15 µM | A549 27.2 µM | UACC-62 16.1 µM | NCI-H226 16.1 µM | MOLT-4 24 µM | CCRF-CEM 6.01 µM | DU-145 17.1 µM | A498 14.6 µM | SF-295 14.2 µM | HOP-92 18.5 µM | HL-60 2.13 µM | OVCAR-4 20 µM | OVCAR-5 23.8 µM | OVCAR-8 14.5 µM | U-251 16.6 µM

C=C1CCN2CC[C@@H](OC(=O)/C(C)=C\C)[C@@H]12
inactive: M14 > 100 µM | SK-MEL-28 > 100 µM | TK-10 > 100 µM | MDA-MB-435 > 100 µM | 786-0 > 100 µM | A549 > 100 µM | UACC-62 > 100 µM | NCI-H226 > 100 µM | NCI-H522 > 100 µM | MOLT-4 > 100 µM | CCRF-CEM > 100 µM | DU-145 > 100 µM | A498 > 100 µM | SF-295 > 100 µM | HOP-92 > 100 µM | OVCAR-4 > 100 µM | OVCAR-5 > 100 µM | OVCAR-8 > 100 µM | U-251 > 100 µM

O=P1(O)C=CC2(CCCC2)O1
inactive: M14 > 100 µM | SK-MEL-28 > 100 µM | TK-10 > 100 µM | MDA-MB-435 > 100 µM | 786-0 > 100 µM | A549 > 100 µM | UACC-62 > 100 µM | NCI-H522 > 100 µM | DU-145 > 100 µM | A498 > 100 µM | SF-295 > 100 µM | HOP-92 > 100 µM | HL-60 > 100 µM | OVCAR-4 > 100 µM | OVCAR-5 > 100 µM | OVCAR-8 > 100 µM | U-251 > 100 µM

CCN(CC)CCNc1ccc2nnn3c4ccc(OCCN(CC)CC)cc4c(=O)c1c23
inactive: M14 > 100 µM | SK-MEL-28 > 100 µM | TK-10 28.5 µM | MDA-MB-435 49.5 µM | 786-0 21.6 µM | A549 44.9 µM | UACC-62 > 100 µM | NCI-H522 18.8 µM | MOLT-4 6.73 µM | CCRF-CEM 16.4 µM | DU-145 42.3 µM | A498 > 100 µM | SF-295 65.3 µM | HOP-92 51.9 µM | OVCAR-4 16.3 µM | OVCAR-5 > 100 µM | OVCAR-8 27.9 µM | U-251 60.3 µM

CCOC(=O)c1cnc(N(C)C)nc1SC(=N)N
inactive: M14 > 100 µM | SK-MEL-28 > 100 µM | TK-10 > 100 µM | MDA-MB-435 > 100 µM | 786-0 > 100 µM | A549 > 100 µM | UACC-62 > 100 µM | NCI-H226 > 100 µM | NCI-H522 > 100 µM | MOLT-4 49.2 µM | DU-145 > 100 µM | A498 > 100 µM | SF-295 > 100 µM | HOP-92 > 100 µM | OVCAR-4 > 100 µM | OVCAR-5 > 100 µM | OVCAR-8 > 100 µM | U-251 > 100 µM

c1ccc2c(c1)NC(C1OC3CCCN3C1C1Nc3ccccc3S1)S2 (stereo not given)
inactive: M14 > 100 µM | SK-MEL-28 > 100 µM | TK-10 > 100 µM | MDA-MB-435 75.2 µM | 786-0 > 100 µM | A549 > 100 µM | UACC-62 79.8 µM | NCI-H522 28.2 µM | MOLT-4 29.9 µM | CCRF-CEM 35.8 µM | DU-145 > 100 µM | A498 > 100 µM | SF-295 90.6 µM | HOP-92 > 100 µM | HL-60 20.6 µM | OVCAR-4 63.4 µM | OVCAR-5 > 100 µM | OVCAR-8 52.1 µM | U-251 80.2 µM

CCOC(=O)NC(Nc1ccc(C(=O)O)cc1)(C(F)(F)F)C(F)(F)F
inactive: M14 > 100 µM | SK-MEL-28 > 100 µM | TK-10 > 100 µM | MDA-MB-435 > 100 µM | 786-0 > 100 µM | A549 > 100 µM | UACC-62 > 100 µM | NCI-H226 > 100 µM | NCI-H522 > 100 µM | MOLT-4 > 100 µM | CCRF-CEM > 100 µM | DU-145 > 100 µM | A498 > 100 µM | SF-295 > 100 µM | HOP-92 > 100 µM | HL-60 > 100 µM | OVCAR-5 > 100 µM | OVCAR-8 > 100 µM | U-251 > 100 µM

O=C1c2ccccc2-c2nc(/C=C/c3ccccc3)cc3c2c1nc1ccccc13
inactive: M14 26.2 µM | SK-MEL-28 23.1 µM | TK-10 81.8 µM | MDA-MB-435 13.9 µM | 786-0 30.5 µM | A549 30.6 µM | UACC-62 9.82 µM | NCI-H226 69.2 µM | NCI-H522 10.3 µM | MOLT-4 23.6 µM | CCRF-CEM 24.4 µM | DU-145 68.4 µM | A498 60.1 µM | SF-295 23 µM | HOP-92 26.5 µM | OVCAR-4 68.7 µM | OVCAR-5 > 100 µM | OVCAR-8 24.3 µM | U-251 17.7 µM

O=NN1CCNC1Cc1ccccc1 (stereo not given)
inactive: M14 41.6 µM | SK-MEL-28 > 100 µM | TK-10 > 100 µM | MDA-MB-435 > 100 µM | 786-0 52.8 µM | A549 > 100 µM | UACC-62 46.8 µM | NCI-H226 > 100 µM | NCI-H522 85.5 µM | MOLT-4 27 µM | CCRF-CEM 31.8 µM | DU-145 50.9 µM | SF-295 49 µM | HOP-92 > 100 µM | HL-60 37.6 µM | OVCAR-4 > 100 µM | OVCAR-5 > 100 µM | OVCAR-8 > 100 µM | U-251 33.3 µM

NC(=O)c1c(NC=O)ncn1C1OCC(O)C(O)C1O (stereo not given)
inactive: TK-10 > 100 µM | MDA-MB-435 > 100 µM | 786-0 > 100 µM | A549 > 100 µM | UACC-62 > 100 µM | NCI-H226 > 100 µM | NCI-H522 > 100 µM | MOLT-4 > 100 µM | CCRF-CEM > 100 µM | DU-145 > 100 µM | SF-295 > 100 µM | HOP-92 > 100 µM | HL-60 > 100 µM | OVCAR-4 > 100 µM | OVCAR-5 > 100 µM | OVCAR-8 > 100 µM | U-251 > 100 µM
